Assay results taken from patent US8642656B2, “Calixarene-based peptide conformation mimetics, methods of use, and methods of making” (priority 2004, dated 2014).
Where two headings read alike, the source gives them in different places.

Experiments:
[1] = system: chorioallantoic membrane (CAM) vasculature; experiment: Chorioallantoic membrane (CAM) assay; assay type: in vivo, chicken; details: 25 μM daily, day 10 to 13
Description: Fertilized Lohman-selected white leghorn eggs were incubated for 3 days at 37° C. and 55% relative humidity and rotated once every hour. On day 3 a rectangular window (1 cm×2 cm) was made in the eggshell. The window was covered with tape to prevent dehydration. The window allowed undisturbed observation of the developing vasculature of the CAM. On day 7 a silicon ring (10 mm diameter) was placed on the CAM to allow local drug administration within the ring. Compounds were applied daily in aliquots of 65 μl (25 μM) from day 10 to day 13. On day 14 the CAMs were photographed.

[2] = system: LPS from E. coli serotype 055:B5; experiment: LPS neutralization assay (Limulus amoebocyte lysate, QCL-1000); assay type: biochemical
How it was run: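 LPS (0.04 units per strain) is mixed with compound and Limulus amoebocyte lysate. Proenzyme activation is then followed by chromogenic substrate cleavage and pNA absorbance at 405-410 nm. Dose-response curves are fit sigmoidally to give IC50.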

[3] = system: LPS from E. coli serotype 0111:B4; experiment: as above; assay type: biochemical; details: read-out: IC50 values (μM) for LPS binding, E. coli 0111:B4
How it was run: (§1)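 Neutralization of endotoxin was measured as loss of LAL proenzyme activation driven by 0.04 units LPS, read as pNA at 405-410 nm; IC50 from sigmoidal fit.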

B16F10 tumor vessels = experiment: Histological analysis of microvessel density, anti-CD31 staining, B16F10 tumors; assay type: in vivo, mice; details: B16F10, 10 mg/kg; mean ± standard error, 20 images
Description: (§2) Immunohistochemistry was used to assess microvessel density and the extent of total cell apoptosis. Approximately, tumors of the same size and with no apparent necrosis were selected for processing. On the last day of treatment mice were sacrificed and tumors were excised. Tumor tissue was embedded in tissue freezing medium (Miles Inc, Elkart, Ind.) and shock frozen in liquid nitrogen. Sections of tissue (10 μm thickness) were prepared for immunohistochemical analysis. For this, tissue sections were brought to room temperature, air dried overnight, and then fixed in acetone for 10 minutes. Slides were allowed to air dry for at least 30 minutes and were washed three limes for 5 minutes each in phosphate-buffered saline (PBS, pH 7.4). Samples were then blocked with PBS containing 0.1% bovine serum albumin and 3% human serum albumin for at least 30 minutes at room temperature in a humidified box. Samples were subsequently incubated with phycoerytrin (PE)-conjugated monoclonal antibody to CD31 (PECAM-1) in a 1:50 dilution (Pharmigen, San Diego, Calif.) to stain for microvessel density.
(§3) Digital images were stored and processed using Adobe Photoshop (Adobe Inc., Mountain View Calif.). Quantification of microvessel density, were determined as described previously (Dings et al., Cancer Res 63, 382-385 (2003)). Statistical analysis was performed using the Student's t-test.

[4] = Hematocrit levels, study with B16 tumors in immune competent mice; assay type: in vivo; details: vehicle 51±1.4
Description: As an indirect measurement of general toxicity, body weights of mice were monitored twice weekly, using a digital balance (Ohaus Florham, N.J.). To determine hematocrit levels, blood samples were extracted by tail vein bleedings one day after terminating treatment, and blood was collected in heparinized micro-hematocrit capillary lubes (Fisher Pittsburgh, Pa.). Samples were spun down for 10 minutes in a micro-hematocrit centrifuge (Clay-Adams; NY), and the amount of hematocrit was determined using an international microcapillary reader (IEC; Needham, Mass.).

LPS from S. typhimurium = experiment: LPS neutralization assay (Limulus amoebocyte lysate, QCL-1000); assay type: biochemical, Salmonella typhimurium; details: read-out: IC50 values (μM) for LPS binding, Salmonella
How it was run: as §1

MA148 tumor vessels = experiment: Histological analysis of microvessel density, anti-CD31 staining, MA148 tumors; assay type: in vivo, mice; details: mean ± standard error, 20 images
Description: as §2, §3

LPS from S. marcascens = experiment: LPS neutralization assay (Limulus amoebocyte lysate, QCL-1000); assay type: biochemical, Serratia marcascens; details: read-out: IC50 values (μM) for LPS binding, Serratia
How it was run: as §1

[5] = Table 3, errors estimated ±30%, read-out: IC50 values (μM) for LPS binding, E. coli 055:B5

| Molecule | angiogenesis inhibition in CAM assay (in words) [1] | IC50 [2, 5] [µM] | IC50 ([3]; Table 3, errors estimated ±30%) [µM] | Branch Points (B16F10 tumor vessels) [pixel counts per image] | End Points (B16F10 tumor vessels) [pixel counts per image] | Vessel Density (B16F10 tumor vessels) [pixel counts per image] | Vessel Length (B16F10 tumor vessels) [pixel counts per image] | Hematocrit levels ±SD [4] | IC50 (LPS from S. typhimurium; Table 3, errors estimated ±30%) [µM] | Branch Points (MA148 tumor vessels; MA148, 10 mg/kg) [pixel counts per image] | End Points (MA148 tumor vessels; MA148, 10 mg/kg) [pixel counts per image] | Vessel Density (MA148 tumor vessels; MA148, 10 mg/kg) [pixel counts per image] | Vessel Length (MA148 tumor vessels; MA148, 10 mg/kg) [pixel counts per image] | IC50 (LPS from S. marcascens; Table 3, errors estimated ±30%) [µM] | also measured |
| --- | --- | --- | --- | --- | --- | --- | --- | --- | --- | --- | --- | --- | --- | --- | --- |
| 5,11,17,23-Tetra-tert-butyl-25,27-bis(2-guanidinoethoxy)-26,28-dihydroxy calix[4]arene trifluoroacetic acid salt [Compound 27] | angiogenesis is inhibited | > 5 | > 5 | 3.5 ± 0.5 | 35.2 ± 4.0 | 10743 ± 764 | 7.5 ± 0.6 | 49±1.4 percentage red blood cells | 4.4 | 2.3 ± 0.6 | 14.7 ± 2.2 | 7402 ± 763 | 5.0 ± 0.7 | > 5 | Branch Points (MA148 tumor vessels; MA148, 2.7 mg/kg): 1.1 ± 0.3 pixel counts per image; End Points (MA148 tumor vessels; MA148, 2.7 mg/kg): 32.7 ± 6.0 pixel counts per image; Vessel Density (MA148 tumor vessels; MA148, 2.7 mg/kg): 6046 ± 533 pixel counts per image; Vessel Length (MA148 tumor vessels; MA148, 2.7 mg/kg): 4.2 ± 0.6 pixel counts per image |
| CN(C)CCNC(=O)COc1c2cccc1Cc1cccc(c1OCC(=O)NCCN(C)C)Cc1cccc(c1OCC(=O)NCCN(C)C)Cc1cccc(c1OCC(=O)NCCN(C)C)C2 [Compound 40] | angiogenesis is inhibited | 3.4 | > 5 | 5.2 ± 0.7 | 21.9 ± 2.6 | 10231 ± 1330 | 8.6 ± 1.2 | 53±0 percentage red blood cells | > 5 | 1.0 ± 0.2 | 23.0 ± 2.9 | 5112 ± 439 | 3.3 ± 0.5 | > 5 | IC50 ([2]; Table 2, read-out: IC50 values (μM) for LPS binding, E. coli 055:B4): 3.4 µM; IC50 ([3]; Table 2): > 5 µM; IC50 (LPS from S. typhimurium; Table 2): > 5 µM; Branch Points (MA148 tumor vessels; MA148, 2.4 mg/kg): 1.6 ± 0.3 pixel counts per image; End Points (MA148 tumor vessels; MA148, 2.4 mg/kg): 15.7 ± 2.1 pixel counts per image; Vessel Density (MA148 tumor vessels; MA148, 2.4 mg/kg): 7148 ± 844 pixel counts per image; Vessel Length (MA148 tumor vessels; MA148, 2.4 mg/kg): 5.3 ± 0.7 pixel counts per image; IC50 (LPS from S. marcascens; Table 2): > 5 µM |
